Laboratory results published in patent US9102657B2, “Sodium salt of (R)-3-[6-amino-pyridin-3-yl]-2-(1-cyclohexyl-1H-imidazol-4-yl)-propionic acid” (Sanofi, priority 2011, dated 2015).

Experiments:
[1] = Dynamic Vapor Sorption (DVS), moisture sorption/desorption isotherms at 25° C.; type: physicochemical
Description: Moisture sorption/desorption isotherms were recorded on a SPS11-10μ from Projekt Messtechnik (Ulm, Germany). One cycle was run at 25° C., in which the sample was first stepwise decreased to 0% Room humidity (RH) and then the relative humidity was stepwise increased from 0 to 95% and the weight of the sample was measured. Typical total measurement times for both cycles were about 20 to 30 hours.

[2] = Chiral stability: solid stored at 40° C. and 75% RH, enantiomeric excess by chiral HPLC; conditions: for Enantiomeric excess: storage condition (B): solid, 40° C. and 75% RH, 4 weeks; for chemical / chiral stability (in words): elevated temperature and humidity, storage 40° C. and 75% RH, sodium salt dihydrate
Description: Enantiomeric excess was determined by chiral HPLC on a HPLC system containing a Quaternary HPLC pump (e.g. HP 1100), an auto sampler, an UV absorbance detector (e.g. DAD Agilent Technologies or other adequate HPLC-System) and a computer data acquisition system with suitable software (e.g. Dionex-Chromeleon). A Chirobiotic R, Supelco (Astec) (4.6×250 mm; 5 μm) column was used as stationary phase and a solution of 800 mL water, 1200 mL acetonitrile and 1.0 g ammoniumacetate was used as mobile phase. The flow rate was set to a value of 1.5 mL/minute and the oven temperature was set to 45° C. Detection was performed by absorbance of the compounds at 236 nm (UV) (bandwidth: 8 nm) and reference wavelength was set to 450 nm (bandwidth: 50 nm). Typical total run times were in the range of about 15 minutes. For sample preparation 50 mg of the substance were accurately weighed into a 10 mL volumetric flask and dissolved and diluted to volume with solvent (acetonitrile/water 50:50). For the HPLC analysis 5 μL of the sample were injected into the system.
Gradient used: Isograt (15 minutes 100% mobile phase A)

Compound	hygroscopicity, absorption or adsorption of water from the surrounding environment (in words) [1]	Enantiomeric excess [2]	Enantiomeric excess ([2]; listed as (R)-3-[6-amino-pyridin-3-yl]-2-(1-cyclohexyl-1H-imidazol-4-yl)-propionic acid)	sorption and desorption isotherms (in words) ([1]; DVS 25° C., between 30% relative humidity and 0.4% relative humidity)	chemical / chiral stability (in words) ([2]; listed as sodium salt of (R)-3-[6-amino-pyridin-3-yl]-2-(1-cyclohexyl-1H-imidazol-4-yl)-pr)	chemical / chiral stability (in words) [2]
Nc1ccc(CC(C(=O)O)c2cn(C3CCCCC3)cn2)cn1 (stereo not shown) [3-[6-amino-pyridin-3-yl]-2-(1-cyclohexyl-1H-imidazol-4-yl)-propionic acid]	hygroscopic					
Nc1ccc(C[C@@H](C(=O)O)c2cn(C3CCCCC3)cn2)cn1 [Example 1, (R)-3-[6-amino-pyridin-3-yl]-2-(1-cyclohexyl-1H-imidazol-4-yl)-propionic acid]		91.6%	91.6%			
Nc1ccc(C[C@@H](C(=O)[O-])c2cn(C3CCCCC3)cn2)cn1.[Na+] [Example 3, (R)-3-[6-amino-pyridin-3-yl]-2-(1-cyclohexyl-1H-imidazol-4-yl)-propionic acid sodium salt dihydrate]	favorable reduced absorption or adsorption of water molecules			almost the same (low water uptake or water desorption)	chemically stable	remain stable
